Assay results as given in ChEMBL document CHEMBL5625252, “Synthesis of peptidomimetics as antibiotic adjuvants for combination with aztreonam to combat MDR Pseudomonas aeruginosa” (Eur J Med Chem, 2023).
In brackets after ≈: the same amount, converted by molar mass. Where a SMILES comes first, the peptide text is derived from it. The star is where a group is joined. βNA = c1ccc2cc(N*)ccc2c1

Experiments:
[1] = test system: Pseudomonas aeruginosa; test: Antibacterial activity against Pseudomonas aeruginosa PAO1 assessed as fractional inhibitory concentration index upto 128 ug/ml incubated for 18 hrs in presence of aztreonam by checkerboard method; format: functional; settings: dose <= 128 µg/ml
[2] = test system: Pseudomonas aeruginosa; test: Synergistic antibacterial activity against Pseudomonas aeruginosa PAO1 assessed as fractional inhibitory concentration index at 128 ug/ml incubated for 18 hrs in presence of aztreonam by checkerboard method; format: functional; settings: dose 128 µg/ml
[3] = test system: Pseudomonas aeruginosa; test: Synergistic antibacterial activity against Pseudomonas aeruginosa 23-Y122 assessed as aztreonam MIC at 128 ug/ml incubated for 18 hrs by checkerboard method; format: functional; settings: dose 128 µg/ml
[4] = test system: Pseudomonas aeruginosa; test: Synergistic antibacterial activity against Pseudomonas aeruginosa 12-1 in CAMH broth medium supplemented with 0.41 to 0.51 mM Mg2+ in presence of aztreonam by checkerboard assay; format: functional
[5] = test system: Pseudomonas aeruginosa; test: Synergistic antibacterial activity against Pseudomonas aeruginosa 23-Y511 assessed as fractional inhibitory concentration index at 128 ug/ml incubated for 18 hrs in presence of aztreonam by checkerboard method; format: functional; settings: dose 128 µg/ml
[6] = test system: Pseudomonas aeruginosa; test: Antibacterial activity against Pseudomonas aeruginosa 21-8 assessed as inhibition of bacterial growth incubated for 18 hrs by agar dilution method; format: functional
[7] = test system: Pseudomonas aeruginosa; test: Antibacterial activity against Pseudomonas aeruginosa K854 overexpressing MexAB-OprM assessed as fractional inhibitory concentration index upto 128 ug/ml incubated for 18 hrs in presence of aztreonam by checkerboard method; format: functional; settings: dose <= 128 µg/ml
[8] = test system: Pseudomonas aeruginosa; test: Synergistic antibacterial activity against Pseudomonas aeruginosa PAO1 in CAMH broth medium supplemented with 20.99 to 21.09 mM Mg2+ in presence of aztreonam by checkerboard assay; format: functional
[9] = test system: Pseudomonas aeruginosa; test: Antibacterial activity against Pseudomonas aeruginosa 23-Y417 assessed as inhibition of bacterial growth incubated for 18 hrs by agar dilution method; format: functional
[10] = test system: Pseudomonas aeruginosa; test: Antibacterial activity against Pseudomonas aeruginosa 13-35 in CAMH broth medium supplemented with 20.99 to 21.09 mM Mg2+ by checkerboard assay; format: functional
[11] = test system: Pseudomonas aeruginosa; test: Antibacterial activity against Pseudomonas aeruginosa 12-1 in CAMH broth medium supplemented with 0.41 to 0.51 mM Mg2+ by checkerboard assay; format: functional
[12] = test system: Pseudomonas aeruginosa; test: Synergistic antibacterial activity against Pseudomonas aeruginosa 12-1 assessed as fractional inhibitory concentration index at 128 ug/ml incubated for 18 hrs in presence of aztreonam by checkerboard method; format: functional; settings: dose 128 µg/ml
[13] = test system: Pseudomonas aeruginosa; test: Synergistic antibacterial activity against Pseudomonas aeruginosa 23-Y417 assessed as fractional inhibitory concentration index at 128 ug/ml incubated for 18 hrs in presence of aztreonam by checkerboard method; format: functional; settings: dose 128 µg/ml
[14] = test system: Pseudomonas aeruginosa; test: Synergistic antibacterial activity against Pseudomonas aeruginosa 16-11 assessed as fractional inhibitory concentration index in CAMH broth medium supplemented with 0.41 to 0.51 mM Mg2+ in presence of aztreonam by checkerboard assay; format: functional
[15] = test system: Pseudomonas aeruginosa; test: Antibacterial activity against Pseudomonas aeruginosa 21-2 assessed as inhibition of bacterial growth incubated for 18 hrs by agar dilution method; format: functional
[16] = test system: Pseudomonas aeruginosa; test: Synergistic antibacterial activity against Pseudomonas aeruginosa 13-35 assessed as fractional inhibitory concentration index in CAMH broth medium supplemented with 20.99 to 21.09 mM Mg2+ in presence of aztreonam by checkerboard assay; format: functional
[17] = test system: Pseudomonas aeruginosa; test: Synergistic antibacterial activity against Pseudomonas aeruginosa 16-11 in CAMH broth medium supplemented with 20.99 to 21.09 mM Mg2+ in presence of aztreonam by checkerboard assay; format: functional
[18] = test system: Pseudomonas aeruginosa; test: Synergistic antibacterial activity against Pseudomonas aeruginosa 19-55 assessed as fractional inhibitory concentration index at 128 ug/ml incubated for 18 hrs in presence of aztreonam by checkerboard method; format: functional; settings: dose 128 µg/ml
[19] = test system: Pseudomonas aeruginosa; test: Synergistic antibacterial activity against Pseudomonas aeruginosa 16-11 assessed as fractional inhibitory concentration index at 128 ug/ml incubated for 18 hrs in presence of aztreonam by checkerboard method; format: functional; settings: dose 128 µg/ml
[20] = test system: Pseudomonas aeruginosa; test: Synergistic antibacterial activity against Pseudomonas aeruginosa 16-11 in CAMH broth medium supplemented with 0.41 to 0.51 mM Mg2+ in presence of aztreonam by checkerboard assay; format: functional
[21] = test system: Pseudomonas aeruginosa; test: Synergistic antibacterial activity against Pseudomonas aeruginosa 16-11 assessed as fractional inhibitory concentration index in CAMH broth medium supplemented with 20.99 to 21.09 mM Mg2+ in presence of aztreonam by checkerboard assay; format: functional
[22] = test system: Pseudomonas aeruginosa; test: Synergistic antibacterial activity against Pseudomonas aeruginosa 21-2 assessed as fractional inhibitory concentration index at 128 ug/ml incubated for 18 hrs in presence of aztreonam by checkerboard method; format: functional; settings: dose 128 µg/ml
[23] = test system: Pseudomonas aeruginosa; test: Synergistic antibacterial activity against Pseudomonas aeruginosa PAO1 assessed as aztreonam MIC at 64 ug/ml incubated for 18 hrs by checkerboard method (reference value: 8 microg/ml); format: functional; settings: dose 64 µg/ml
[24] = test system: Pseudomonas aeruginosa; test: Synergistic antibacterial activity against Pseudomonas aeruginosa 13-35 in CAMH broth medium supplemented with 20.99 to 21.09 mM Mg2+ in presence of aztreonam by checkerboard assay; format: functional
[25] = Cytotoxicity against human LX2 cells incubated for 24 hrs by MTT assay; format: toxicity, cell-based; settings: LX-2 cells
[26] = test system: Pseudomonas aeruginosa; test: Synergistic antibacterial activity against Pseudomonas aeruginosa 21-8 assessed as fractional inhibitory concentration index at 128 ug/ml incubated for 18 hrs in presence of aztreonam by checkerboard method; format: functional; settings: dose 128 µg/ml
[27] = test system: Pseudomonas aeruginosa; test: Synergistic antibacterial activity against Pseudomonas aeruginosa PAO1 assessed as fractional inhibitory concentration index in CAMH broth medium supplemented with 0.41 to 0.51 mM Mg2+ in presence of aztreonam by checkerboard assay; format: functional
[28] = test system: Pseudomonas aeruginosa; test: Synergistic antibacterial activity against Pseudomonas aeruginosa PAO1 assessed as fractional inhibitory concentration index in CAMH broth medium supplemented with 20.99 to 21.09 mM Mg2+ in presence of aztreonam by checkerboard assay; format: functional
[29] = test system: Pseudomonas aeruginosa; test: Synergistic antibacterial activity against Pseudomonas aeruginosa 23-Y539 assessed as fractional inhibitory concentration index at 128 ug/ml incubated for 18 hrs in presence of aztreonam by checkerboard method; format: functional; settings: dose 128 µg/ml
[30] = test system: Pseudomonas aeruginosa; test: Synergistic antibacterial activity against Pseudomonas aeruginosa 23-Y372 assessed as fractional inhibitory concentration index at 128 ug/ml incubated for 18 hrs in presence of aztreonam by checkerboard method; format: functional; settings: dose 128 µg/ml
[31] = test system: Pseudomonas aeruginosa; test: Antibacterial activity against Pseudomonas aeruginosa 12-1 in CAMH broth medium supplemented with 20.99 to 21.09 mM Mg2+ by checkerboard assay; format: functional
[32] = test system: Pseudomonas aeruginosa; test: Antibacterial activity against Pseudomonas aeruginosa 16-11 in CAMH broth medium supplemented with 0.41 to 0.51 mM Mg2+ by checkerboard assay; format: functional
[33] = test system: Pseudomonas aeruginosa; test: Synergistic antibacterial activity against Pseudomonas aeruginosa 16-2 assessed as fractional inhibitory concentration index at 128 ug/ml incubated for 18 hrs in presence of aztreonam by checkerboard method; format: functional; settings: dose 128 µg/ml
[34] = test system: Pseudomonas aeruginosa; test: Synergistic antibacterial activity against Pseudomonas aeruginosa 12-1 assessed as fractional inhibitory concentration index in CAMH broth medium supplemented with 20.99 to 21.09 mM Mg2+ in presence of aztreonam by checkerboard assay; format: functional
[35] = test system: Pseudomonas aeruginosa; test: Synergistic antibacterial activity against Pseudomonas aeruginosa 13-3 assessed as fractional inhibitory concentration index at 128 ug/ml incubated for 18 hrs in presence of aztreonam by checkerboard method; format: functional; settings: dose 128 µg/ml
[36] = test system: Pseudomonas aeruginosa; test: Synergistic antibacterial activity against Pseudomonas aeruginosa 23-Y364 assessed as fractional inhibitory concentration index at 128 ug/ml incubated for 18 hrs in presence of aztreonam by checkerboard method; format: functional; settings: dose 128 µg/ml

Row | SMILES | fractional inhibitory concentration index (FICI) [1] | fractional inhibitory concentration index (FICI) [2] | MIC [3] [µg/mL] | MIC [4] [µg/mL] | fractional inhibitory concentration index (FICI) [5] | MIC [6] [µg/mL] | fractional inhibitory concentration index (FICI) [7] | MIC [8] [µg/mL] | MIC [10] [µg/mL] | MIC [11] [µg/mL] | fractional inhibitory concentration index (FICI) [12] | fractional inhibitory concentration index (FICI) [13] | fractional inhibitory concentration index (FICI) [14] | MIC [15] [µg/mL] | fractional inhibitory concentration index (FICI) [16] | MIC [17] [µg/mL] | fractional inhibitory concentration index (FICI) [18] | fractional inhibitory concentration index (FICI) [19] | MIC [20] [µg/mL] | fractional inhibitory concentration index (FICI) [21] | also measured
1 | N=C(N)NCCC[C@H](NC(=O)[C@@H](N)Cc1ccccc1)C(=O)Nc1ccc2ccccc2c1 [PABETAN] (H-Phe-Arg-βNA) | <0.375 | 0.5 | 16 | 128 | 1 | 512 (≈ 1150 µM) | <0.75 | 128 | 512 | 512 | 0.375 | 0.5 | 1.25 | 512 (≈ 1150 µM) | 0.375 | 128 | 0.313 | 0.5 | 128 | 1.25 | MIC ([9]; read-out: MIC): 512 µg/mL (≈ 1150 µM); fractional inhibitory concentration index (FICI) [22]: 0.5; MIC [23]: 2 µg/mL; MIC [24]: 128 µg/mL; CC50 at 24 h [25]: > 100 µM; fractional inhibitory concentration index (FICI) [26]: 0.5; fractional inhibitory concentration index (FICI) [27]: 0.5; fractional inhibitory concentration index (FICI) [28]: 0.5; fractional inhibitory concentration index (FICI) [29]: 0.313; fractional inhibitory concentration index (FICI) [30]: 0.375; MIC [31]: 512 µg/mL; MIC [32]: 512 µg/mL; fractional inhibitory concentration index (FICI) [33]: 0.5; fractional inhibitory concentration index (FICI) [34]: 1.25; fractional inhibitory concentration index (FICI) [35]: 0.375; fractional inhibitory concentration index (FICI) [36]: 0.281
2 | NCCC[C@H](NC(=O)C[C@@H](N)Cc1ccccc1)C(=O)Nc1ccc2ccccc2c1 | <0.375 | 0.5 | 32 | 128 | 1 | > 512 | <0.5 | 128 | 512 | 512 | 0.5 | <0.5 | 1.25 | > 512 | 0.5 | 128 | 0.313 | 0.5 | 128 | 1.25 | MIC [9]: > 512 µg/mL; fractional inhibitory concentration index (FICI) [22]: <0.5; MIC [23]: 2 µg/mL; MIC [24]: 128 µg/mL; CC50 at 24 h [25]: > 100 µM; fractional inhibitory concentration index (FICI) [26]: <0.5; fractional inhibitory concentration index (FICI) [27]: 0.5; fractional inhibitory concentration index (FICI) [28]: 0.375; fractional inhibitory concentration index (FICI) [29]: 0.313; fractional inhibitory concentration index (FICI) [30]: 0.375; MIC [31]: 512 µg/mL; MIC [32]: 512 µg/mL; fractional inhibitory concentration index (FICI) [33]: 0.5; fractional inhibitory concentration index (FICI) [34]: 1.25; fractional inhibitory concentration index (FICI) [35]: 0.375; fractional inhibitory concentration index (FICI) [36]: <0.281
